Assays:
[1] = log P by HPLC on reversed-phase C18, LC-MS, pH 2.7, formic acid (HCOOH); format: physicochemical; settings: reversed-phase C18 HPLC column; HPLC C18, pH 2.7, 0.1% aqueous formic acid/acetonitrile
Method: The log P values reported in the table above and in the preparation examples were determined in accordance with EEC Directive 79/831 Annex V.A8 by HPLC (High Performance Liquid Chromatography) on reversed-phase columns (C18), with the following methods: ^[b] The determination is made by LC-MS in the acid range at pH 2.7 with 0.1% aqueous formic acid and acetonitrile (containing 0.1% formic acid) as eluents; linear gradient from 10% acetonitrile to 95% acetonitrile. Calibration took place with unbranched alkan-2-ones (having 3 to 16 carbon atoms) of known log P values (log P values determined from the retention times by linear interpolation between two successive alkanones).

[2] = system: greenhouse red spidermite (Tetranychus urticae); assay: Tetranychus test; OP resistant (TETRUR spray treatment), Example 3; format: in vivo; settings: foliar, 144 h, spray on bean leaf discs, after 6 days, read-out: effect (mites killed)
Method: Solvents: 78.0 parts by weight of acetone • • 1.5 parts by weight of dimethylformamide Emulsifier: 0.5 part by weight of alkylaryl polyglycol ether An appropriate preparation of active compound is prepared by mixing 1 part by weight of active compound with the stated amounts of solvent and emulsifier and diluting the concentrate with emulsifier-containing water to the desired concentration. Leaf discs of bean (Phaseolus vulgaris) infested by all stages of the greenhouse red spidermite (Tetranychus urticae) are sprayed with a preparation of active compound at the desired concentration. After 6 days, the effect in % is determined. Here, 100% means that all of the mites have been killed; 0% means that no mites have been killed.

Row | Structure (SMILES) | chromatographic logP [1] | pest or weed control at 100 g/ha [2] [%] | pest or weed control at 500 g/ha [2] [%]
1 | Cc1cc(C)c(-n2cnc(C(F)F)n2)cc1SCC1CC1 [I-A-13] | 3.85 | 100 | –
2 | Cc1cc(C)c(-n2cnc(C(F)(F)C(F)(F)F)n2)cc1SCC1CC1 [I-A-14] | 5.11 | 100 | –
3 | CSc1cc(-n2cnc(C(F)F)n2)c(C)cc1C [I-A-18] | 3.01 | – | 100
4 | Cc1cc(C)c(-n2cnc(C(F)F)n2)cc1SCC(F)(F)C(F)F [I-A-19] | 3.37 | 100 | –
5 | Cc1cc(C)c(-n2cnc(C(F)F)n2)cc1SCC#N [I-A-20] | 2.47 | – | 100
6 | Cc1cc(C)c([S+](C)[O-])cc1-n1cnc(C(F)F)n1 (stereo not drawn) [I-A-21] | 1.46 | – | 80
7 | Cc1cc(F)c(-n2cnc(C(F)F)n2)cc1[S+](C)[O-] (stereo not drawn) [I-A-22] | 1.37 | – | 80
8 | Cc1cc(F)c(-n2cnc(C(F)F)n2)cc1SCC#N [I-A-24] | 2.31 | – | 100
9 | Cc1cc(C)c([S+]([O-])CC#N)cc1-n1cnc(C(F)F)n1 (stereo not drawn) [I-A-25] | 1.49 | – | 100
10 | Cc1cc(F)c(-n2cnc(C(F)F)n2)cc1[S+]([O-])CC#N (stereo not drawn) [I-A-26] | 1.4 | – | 100
11 | Cc1cc(C)c(-n2cnc(C(F)(F)C(F)(F)F)n2)cc1SCC(F)(F)F [I-A-28] | 4.49 | 100 | –
12 | Cc1cc(F)c(-n2cnc(C(F)F)n2)cc1[S+]([O-])CC1CC1 (stereo not drawn) [I-A-29] | 1.96 | – | 100
13 | Cc1cc(C)c([S+]([O-])CC(F)(F)C(F)F)cc1-n1cnc(C(F)F)n1 (stereo not drawn) [I-A-32] | 2.35 | 100 | –
14 | Cc1cc(C)c(-n2cnc(C(F)F)n2)cc1SSc1cc(-n2cnc(C(F)F)n2)c(C)cc1C [II-A-1, 1,1′-[Disulphanediylbis(4,6-dimethylbenzene-3,1-diyl)]bis[3-(difluoromethyl)-1H-1,2,4-triazole]] | 4.45 | – | –
15 | Cc1cc(F)c(-n2cnc(C(F)F)n2)cc1SSc1cc(-n2cnc(C(F)F)n2)c(F)cc1C [II-A-2] | 4.33 | – | –
16 | Cc1cc(Cl)c(-n2cnc(C(F)F)n2)cc1SSc1cc(-n2cnc(C(F)F)n2)c(Cl)cc1C [II-A-3] | 4.53 | – | –
17 | Cc1cc(C)c(-n2cnc(C(F)(F)C(F)(F)F)n2)cc1SSc1cc(-n2cnc(C(F)(F)C(F)(F)F)n2)c(C)cc1C [II-A-4] | 6.36 | – | –
18 | Cc1cc(C)c(-n2cnc(C(F)(F)C(F)F)n2)cc1SSc1cc(-n2cnc(C(F)(F)C(F)F)n2)c(C)cc1C [II-A-5] | 5.22 | – | –
19 | Cc1cc(C)c(-n2cnc(C(F)(F)C(F)(F)Cl)n2)cc1SSc1cc(-n2cnc(C(F)(F)C(F)(F)Cl)n2)c(C)cc1C [II-A-6] | 6.62 | – | –

The next lines start with results.

Row | chromatographic logP [1] | Structure (SMILES) | pest or weed control at 100 g/ha [2] [%] | pest or weed control at 500 g/ha [2] [%]
20 | 4.19 | Cc1ccc(-n2cnc(C(F)F)n2)cc1SSc1cc(-n2cnc(C(F)F)n2)ccc1C [II-A-7] | – | –
21 | 3.88 | Cc1ccc(-n2cnc(C(F)(F)C(F)(F)Cl)n2)c(C)c1 [IV-A-1] | – | –
22 | 2.46 | Cc1ccc(-n2cnc(C(F)F)n2)c(Cl)c1 [IV-A-4] | – | –
23 | 3.78 | Cc1ccc(-n2cnc(C(F)(F)C(F)(F)F)n2)c(C)c1 [IV-A-5] | – | –
24 | 3.08 | Cc1ccc(-n2cnc(C(F)(F)C(F)F)n2)c(C)c1 [IV-A-6] | – | –
25 | 2.26 | Cc1ccc(-n2cnc(C(F)F)n2)cc1 [IV-A-7] | – | –
26 | 2.91 | Cc1ccc(NNC(=O)C(F)(F)C(F)(F)F)c(C)c1 [V-2] | – | –
27 | 2.46 | Cc1ccc(NNC(=O)C(F)(F)C(F)F)c(C)c1 [V-3] | – | –
28 | 1.46 | Cc1ccc(NNC(=O)C(F)F)cc1 [V-4] | – | –
29 | 1.66 | Cc1ccc(NNC(=O)C(F)F)c(F)c1 [V-5] | – | –
30 | 2.5 | Cc1ccc(N/N=C(\N)C(F)F)c(Cl)c1 [X-1] | – | –
31 | 3.65 | Cc1ccc(N/N=C(\N)C(F)(F)C(F)(F)F)c(C)c1 [X-2] | – | –
32 | 1.34 | N/C(=N\Nc1ccc(F)cc1)C(F)F [X-3] | – | –
